# Data taken from publication PMC9259545, “Impact of poly-arginine peptides R18D and R18 on alteplase and tenecteplase thrombolysis in vitro, and neuroprotective stability to proteolysis” (Journal of Thrombosis and Thrombolysis, 2022).
# Non-standard residues stand in square brackets, D forms with d. Residues, ends and D or L forms follow the SMILES beside them.
# Key:
# [1] = in the order; 8 (NA-1), unpublished data (R18D); cited from earlier work
# Text: It is important to mention that the results obtained in this study are likely to overestimate any negative effects of R18D, R18 and NA-1 on tPA/TNK lag time and thrombolysis compared with what would occur clinically for several reasons. Firstly, positively charged peptides administered directly into the circulation would have a larger pool of negatively charged plasma proteins such as albumin to bind, and thus reduce any inhibitory electrostatic effects of the peptides on lag time and thrombolysis. In addition, the in vitro thrombolysis assay used in this study was performed in 27.5% plasma wh ...
# [2] = intravenous dose 350 nmol/kg, healthy male and female rats; ref unpublished observation; cited from earlier work
# tPA [3] = biological target: T1, tPA (Homo sapiens, UniProt P00750); assay: Neuroprotective proteolytic stability after pre-incubation with tPA (glutamic acid excitotoxicity model, MTS); assay type: in vitro ADME; conditions: 1 or 2 h or overnight (22-24 h)
# T1 construct: purchased Boehringer Ingelheim, Germany 10 mg vial
# T1 sequence (P00750 36-562): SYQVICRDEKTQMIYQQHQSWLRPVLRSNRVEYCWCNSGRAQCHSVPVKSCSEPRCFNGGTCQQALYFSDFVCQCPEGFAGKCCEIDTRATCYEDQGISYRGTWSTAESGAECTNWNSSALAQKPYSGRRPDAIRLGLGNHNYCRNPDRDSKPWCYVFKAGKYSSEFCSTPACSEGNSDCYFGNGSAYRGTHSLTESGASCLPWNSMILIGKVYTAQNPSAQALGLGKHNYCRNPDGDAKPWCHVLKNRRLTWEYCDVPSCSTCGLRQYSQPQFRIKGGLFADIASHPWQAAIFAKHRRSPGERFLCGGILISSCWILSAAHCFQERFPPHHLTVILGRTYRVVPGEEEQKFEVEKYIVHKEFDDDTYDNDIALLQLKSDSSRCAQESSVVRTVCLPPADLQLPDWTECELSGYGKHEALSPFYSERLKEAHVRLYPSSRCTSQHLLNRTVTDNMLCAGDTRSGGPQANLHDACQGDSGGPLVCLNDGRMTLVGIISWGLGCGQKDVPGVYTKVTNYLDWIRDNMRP
# Method: (§1) Neuronal cultures were maintained in CO2 incubator.
# (§2) tPA (1000 µg/mL) or TNK (5000 µg/mL) resuspended in water (Baxter) were used to prepare 10 µg/mL (170 nM; note this is 34 times the concentration used in thrombolysis assay) stocks in MEM/2% B27 supplement (MEM/B27).
# (§3) All data are presented as mean ± standard deviation (SD).
# tPA [4] = biological target: T1, tPA; assay: Halo clot thrombolysis assay, tPA thrombolysis of whole blood clots; assay type: biochemical; conditions: tPA 5 nM, 27.5% human plasma
# Method: We utilised a high throughput 96-well plate thrombolysis assay (“halo clot assay”) based on the procedure developed by Bonnard et al.. To reduce assay components the halo thrombus formation procedure was modified by replacing the original thrombotic mixture consisting of recombinant tissue factor and synthetic phospholipids reconstituted in 30 mM calcium, with thrombin, and reducing the pro-thrombotic volume (i.e., thrombin) from 5 to 3 µL and blood volume from 25 to 12 µL. Another modification to simplify clot formation consisted of adding the thrombin (3 µL; 500 nM in saline) to one side of the well and 12 µL of blood to the opposite side of well, before using a heat stretched Pasteur pipette with sealed end to mix the two liquids together using 4 to 5 circular motions around the edge of the well (halo clot). The original methodology involved adding the 5 μL of the clotting mixture to the edge of the well, and then using a micropipette to slowly release the 25 μL of blood to the edge of the well while at the same time maintaining a circular motion. Plates were incubated in a humidified 37 °C incubator for 1 h before use in the thrombolysis assay.
# The thrombolysis assay involved adding 30 µL of Tris buffer (50 mM Tris–HCl, 100 mM NaCl, pH 7.4) with or without peptide followed by 55 µL Tris buffer containing tPA or TNK (5 nM final concentration) and 50% human plasma (final plasma concentration during thrombolysis 27.5%). The final concentration of peptide during thrombolysis ranged from 0.25 to 16 µM (note: an intravenous dose of R18D at 350 nmol/kg, which is likely to be neuroprotective achieves a Cmax of 0.7–0.9 µM in healthy male and female rats; unpublished observation). […] Following the addition of tPA or TNK into the wells, clot lysis was monitored over a 1-h period at 37 °C using a plate reader (Cytation5, BioTek, USA) by measuring absorbance at 510 nm every 1 min immediately after orbital shaking (205 rpm for 5 s). Controls consisted of wells with no thrombin (100% clot lysis; L100%) and wells with no tPA or TNK (0% clot lysis; L0%). At the 1-h time point, the percentage of thrombolysis (%T) in tPA or TNK treated samples (LTX) was calculated by transforming absorbance values based on the formula: % T = (LTX) − (L0%)/(L100%) − (L0%) × 100. In addition, during the 1-h period of clot lysis lag time and maximal activity (also known as maximum velocity or Vmax) of the thrombolysis reaction were calculated. The lag time is defined as the time interval between the first absorbance reading (time = 0) and the line of maximum slope of the thrombolysis reaction. The maximal activity is calculated from the maximum slope over the time course of the assay and reflects the capacity of an enzyme to catalyse a reaction (i.e., thrombolysis), with higher values representing higher catalytic activity (i.e., tPA/TNK induced plasmin thrombolysis).
# For each thrombolysis assay, replicates for control wells (L0% and L100%) and tPA or TNK only treated wells consisted of n = 4–8. Replicates for tPA or TNK and peptide treated wells consisted of n = 4. For data analysis and graphical representations of the results, data from three independent thrombolytic assays were pooled. Studies consisted of R18D, R18 and NA-1 examined at the 0.5, 1, 2, 4, 8 or 16 µM concentrations performed concurrently on the same 96-well plate, in respective order. In addition, since R18D is known to be resistant to plasmin degradation and appeared to have the most impact on tPA or TNK thrombolysis, a separate set of three independent assays were performed for this peptide alone at concentrations of 0.25, 0.5, 1, 2, 4, 8 or 16 µM. Furthermore, the second dose study with R18D provided the opportunity to include a lower concentration (0.25 µM) of the peptide and to provide comparative data when only one peptide was examined in the thrombolysis assay per 96-well plate as opposed to examining the three peptides concurrently on the same plate. […]
# TNK = biological target: T2, TNK (Homo sapiens, UniProt P00750, H332A/K331A/N152Q/R333A/R334A/T138N); assay: Neuroprotective proteolytic stability after pre-incubation with TNK (glutamic acid excitotoxicity model, MTS); assay type: in vitro ADME; conditions: 1 or 2 h or overnight (22-24 h)
# T2 construct: purchased Boehringer Ingelheim 50 mg vial
# T2 sequence (P00750 36-562 T138N/N152Q/K331A/H332A/R333A/R334A): as the sequence (P00750 36-562) above, with T103N, N117Q, K296A, H297A, R298A, R299A counted along it
# Method: as §1, §2, §3
# trypsin (TrypLE Express) = trypsin (TrypLE Express) (Fusarium oxysporum, UniProt P35049)
# trypsin (TrypLE Express), sequence (P35049 25-248): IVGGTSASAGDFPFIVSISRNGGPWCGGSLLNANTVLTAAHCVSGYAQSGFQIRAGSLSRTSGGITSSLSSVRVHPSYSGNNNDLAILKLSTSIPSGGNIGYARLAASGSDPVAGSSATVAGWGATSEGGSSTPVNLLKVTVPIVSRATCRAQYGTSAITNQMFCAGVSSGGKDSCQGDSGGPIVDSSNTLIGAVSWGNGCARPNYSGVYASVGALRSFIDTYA
# Method: Rat primary cortical cultures were established from embryonic day 18–19 Sprague–Dawley rats (Animal Resources Centre, WA, Australia). Briefly, cortical tissue was dissociated in 2 mL Hanks balanced salt solution (HBBS; Life Technologies, Australia) supplemented with 1.3 mM L-cysteine, 10 U/mL papain (Sigma-Aldrich, Australia) and 50 U/mL DNase (Sigma-Aldrich) by trituration with a fire-polished pipette. Dissociated neurons were transferred to a 15-mL tube containing 13 mL of cold Dulbecco’s modified Eagle’s medium (DMEM; Life Technologies)/10% horse serum (Life Technologies) and centrifuged for 4 min at 300×g. Neurons were gently resuspended in 1.5 mL of cold Neurobasal (NB; Life Technologies)/2% B27 supplement (B27; Life Technologies) and the neuronal cell concentration adjusted to 50,000 neurons/70 μL and 70 μL inoculated into each well of a 96-well microtiter plate (Nunc, USA) pre-treated wells. Pre-treated wells were coated with 50 μL of poly-D-lysine (50 μg/mL; 70–150 K; Sigma-Aldrich) for 2–3 h at room temperature before being replaced with 50 μL of NB/B27, 4% fetal bovine serum (Life Technologies), 1% horse serum, 62.5 μM glutamic acid, 25 μM 2-mercaptoethanol, 30 μg/mL penicillin and 50 μg/mL streptomycin and placed in a CO2 incubator (5% CO2, 95% air balance, 98% humidity, 37 °C) prior to seeding with neurons. Neuronal cultures were maintained in CO2 incubator. On day in vitro four, 60 µL fresh NB/B27 containing the mitotic inhibitor cytosine arabinofuranoside (final concentration 0.15 μM; Sigma-Aldrich) was added and neuronal culture were used on day in vitro 11 to 13.
# As an alternative to trypsin, TrypLE Express (Thermo Fischer Scientific, Australia) a synthetic serine protease with trypsin-like activity was used. […] Hereafter, TrypLE Express is referred to as trypsin.
# Trypsin solution was added to an equal volume of MEM/2% B27 (T:MEM/B27). […] Following the incubation, 50 µL of the T:MEM/B27 or HBSS:MEM/B27 peptide solution was used to treat neuronal culture as described below for the glutamic acid excitotoxicity model. […]
# plasmin = conditions: cited from earlier work
# Text: Given the potential future application of the R18D, R18 and NA-1 peptides as ischaemic stroke neurotherapeutics, it is important to establish if they interfere with current and future standard of care treatments, namely alteplase (tPA; recombinant tissue plasminogen activator) and tenecteplase (TNK; a modified version of tPA) thrombolysis, which are routinely administered prior to thrombectomy. […] NA-1 is also degraded by plasmin [8]. Together, these findings confirm that peptides synthesised with D-enantiomer amino acids such as R18D, unlike peptides synthesised with L-enantiomer amino acids are highly resistant to proteolytic degradation and are likely to retain their neuroprotective efficacy ...
# [5] = separate dose study, R18D alone, 0.25-16 µM
compound,measurement,setting,value
N=C(N)NCCC[C@@H](N)C(=O)N[C@H](CCCNC(=N)N)C(=O)N[C@H](CCCNC(=N)N)C(=O)N[C@H](CCCNC(=N)N)C(=O)N[C@H](CCCNC(=N)N)C(=O)N[C@H](CCCNC(=N)N)C(=O)N[C@H](CCCNC(=N)N)C(=O)N[C@H](CCCNC(=N)N)C(=O)N[C@H](CCCNC(=N)N)C(=O)N[C@H](CCCNC(=N)N)C(=O)N[C@H](CCCNC(=N)N)C(=O)N[C@H](CCCNC(=N)N)C(=O)N[C@H](CCCNC(=N)N)C(=O)N[C@H](CCCNC(=N)N)C(=O)N[C@H](CCCNC(=N)N)C(=O)N[C@H](CCCNC(=N)N)C(=O)N[C@H](CCCNC(=N)N)C(=O)N[C@H](CCCNC(=N)N)C(=O)O [R18D] (H-[dR][dR][dR][dR][dR][dR][dR][dR][dR][dR][dR][dR][dR][dR][dR][dR][dR][dR]-OH),In vivo peak plasma concentration,[1],1 to 5 µM
same,Plasma half-life,[1],5 to 15 min
same,Cmax,[2],0.7 to 0.9 µM
same,Resistance to degradation by tPA,"tPA [3]; inferred from retained neuroprotection, peptide 2 µM, tPA 170 nM",resistant to degradation
same,Neuroprotective efficacy after incubation with tPA,"tPA [3]; peptide 2 µM in MEM/B27 with tPA 10 µg/mL (170 nM), 37 °C CO2 incubator, then rat cortical neurons, glutamic acid 100 µM 5 min, MTS viability at 20-24 h, N = 4-8",a similar and a high level of neuroprotective efficacy
same,Effect on tPA thrombolysis maximal activity vs tPA control,"tPA [4]; concurrent study, 0.5-16 µM peptide",did not significantly impact tPA thrombolysis maximal activity
same,Increase in tPA lag time,"tPA [4]; peptide 16 µM, concurrent study, 37 °C",5.85 min
same,Effect on tPA lag time vs tPA control,tPA [4]; [5],did not significantly affect tPA lag time at any concentration
same,Effect on tPA thrombolysis maximal activity vs tPA control,tPA [4]; [5],did not significantly impact tPA thrombolysis maximal activity at any concentration
same,Effect on percentage tPA thrombolysis at 1 h vs tPA control,"tPA [4]; separate dose study, R18D alone, 0.25-16 µM, 37 °C, three independent assays",did not inhibit tPA thrombolysis
same,Effect on percentage tPA thrombolysis at 1 h vs tPA control,"tPA [4]; three peptides concurrently on the same plate, 0.5-16 µM peptide, Tris pH 7.4, 37 °C, absorbance 510 nm, three independent assays pooled, n = 4, Dunnett's test",did not significantly inhibit thrombolysis
same,Resistance to degradation by TNK,"TNK; inferred from retained neuroprotection, peptide 2 µM, TNK 170 nM",resistant to degradation
same,Neuroprotective efficacy after incubation with TNK,"TNK; peptide 2 µM in MEM/B27 with TNK 10 µg/mL (170 nM), 37 °C CO2 incubator, then rat cortical neurons, glutamic acid 100 µM 5 min, MTS viability at 20-24 h, N = 4-8",a similar and a high level of neuroprotective efficacy
same,Resistance to degradation by trypsin,trypsin (TrypLE Express),resistant to degradation by trypsin
same,High-level neuroprotective efficacy after incubation with trypsin,"trypsin (TrypLE Express); peptide 2 µM in 50% TrypLE Express : MEM/B27, 1 or 2 h or overnight (22-24 h), 37 °C CO2 incubator, then rat cortical neurons, glutamic acid 100 µM 5 min, MTS viability at 20-24 h, N = 4-8",displayed a high-level neuroprotective efficacy
same,Neuroprotective properties in the glutamic acid excitotoxicity injury model when pre-incubated with plasmin,plasmin,retains its neuroprotective properties
same,Sensitivity to proteolytic degradation by plasmin,plasmin,not
